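Briefly, cells in 96-well plates were exposed to five compound concentrations for 48 h, and endpoints were estimated by linear interpolation. GI50 = concentration required for 50% inhibition of growth. TGI denotes the concentration required for complete inhibition of growth.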

Some test systems named below: OVCAR-4 ovarian; OVCAR-8 ovarian; HCT-15 colon; UACC-257 melanoma; M14 melanoma; MDA-MB-231 breast; DU-145 prostate; MOLT-4 leukemia; SNB-19 CNS; SK-MEL-28 melanoma.
Common to all, as to experiment: inhibition of tumour cell growth, NCI panel, 48 h

For `O=C(NCCNC1=CC(=O)c2nc3ccccc3c3ccnc1c23)c1cnccn1`, the GI50 in the experiment on OVCAR-4 ovarian is 83.7 µM; with OVCAR-8 ovarian, 24.3 µM; in the experiment with HCT-15 colon it was 38 µM; in the experiment with UACC-257 melanoma, 49.3 µM; in the experiment with M14 melanoma, 40.8 µM; with MDA-MB-231 breast, 58.5 µM. The GI50 in the experiment on DU-145 prostate was 43.8 µM; in the experiment with MOLT-4 leukemia, 35.7 µM; in the experiment with SNB-19 CNS it was 42.2 µM; with SK-MEL-28 melanoma, 40.9 µM. Moreover, the TGI in the experiment on OVCAR-4 ovarian, with OVCAR-8 ovarian, in the experiment on HCT-15 colon, in the experiment with UACC-257 melanoma, in the experiment on M14 melanoma and in the experiment with MDA-MB-231 breast was greater than 100 µM in each case. For the same molecule, the TGI with DU-145 prostate, with MOLT-4 leukemia, in the experiment with SNB-19 CNS and with SK-MEL-28 melanoma was greater than 100 µM each time.

Consider `Cn1cc(C2=C(c3cccc([N+](=O)[O-])c3)C(=O)NC2=O)c2ccccc21`, for which the GI50 was 6.06 µM with OVCAR-4 ovarian; 6.81 µM in the experiment on OVCAR-8 ovarian; 7.97 µM with HCT-15 colon; 9.99 µM in the experiment on UACC-257 melanoma; 12.4 µM with M14 melanoma; 6.42 µM with MDA-MB-231 breast. The GI50 was 12.7 µM in the experiment with DU-145 prostate, 7.18 µM with MOLT-4 leukemia, 19.6 µM with SNB-19 CNS and 10.5 µM in the experiment on SK-MEL-28 melanoma. For the same molecule, the TGI is greater than 25 µM in the experiment with OVCAR-4 ovarian; greater than 22.4 µM with OVCAR-8 ovarian; greater than 25 µM with HCT-15 colon; greater than 22.7 µM in the experiment on UACC-257 melanoma; greater than 25 µM in the experiment on M14 melanoma; greater than 25 µM with MDA-MB-231 breast. In addition, the TGI with DU-145 prostate is greater than 25 µM; in the experiment on MOLT-4 leukemia it was greater than 22.8 µM; in the experiment with SNB-19 CNS it was greater than 25 µM; in the experiment with SK-MEL-28 melanoma it was greater than 25 µM.

For `COc1cc(C(=O)/C=C/c2c(C)n([O-])c3ccc(Cl)cc3[n+]2=O)cc(OC)c1OC`, the GI50 was 9.29 µM in the experiment on OVCAR-4 ovarian; 3.18 µM in the experiment with OVCAR-8 ovarian; 4.26 µM in the experiment with HCT-15 colon; 19.5 µM in the experiment with UACC-257 melanoma; 4.59 µM with M14 melanoma; 12.9 µM in the experiment with MDA-MB-231 breast. Moreover, the GI50 is 4.2 µM with DU-145 prostate, 3.06 µM in the experiment on MOLT-4 leukemia, 30.2 µM in the experiment with SNB-19 CNS and 10.8 µM with SK-MEL-28 melanoma. Further, the TGI in the experiment with OVCAR-4 ovarian is greater than 100 µM; with OVCAR-8 ovarian, greater than 100 µM; in the experiment on HCT-15 colon, 30.9 µM; with UACC-257 melanoma it was greater than 100 µM; in the experiment on M14 melanoma, greater than 100 µM; in the experiment on MDA-MB-231 breast it was greater than 100 µM. Also, the TGI in the experiment with DU-145 prostate was greater than 100 µM; in the experiment with MOLT-4 leukemia, 27.9 µM; with SNB-19 CNS, greater than 100 µM; with SK-MEL-28 melanoma, 52.9 µM.

For `c1ccc(-c2nc3ccccc3[nH]2)c(OCCCCCOc2ccccc2-c2nc3ccccc3[nH]2)c1`, the GI50 is 2.92 µM in the experiment with OVCAR-4 ovarian; 21.7 µM in the experiment with OVCAR-8 ovarian; 4.64 µM with HCT-15 colon; 17.9 µM in the experiment with UACC-257 melanoma; 13.4 µM in the experiment on M14 melanoma; 12.2 µM with MDA-MB-231 breast. Moreover, the GI50 with DU-145 prostate is 3.82 µM; in the experiment on MOLT-4 leukemia, 5.58 µM; with SNB-19 CNS, 14.4 µM; in the experiment on SK-MEL-28 melanoma it was 3.07 µM. For the same molecule, the TGI in the experiment with OVCAR-4 ovarian turned out to be 8.97 µM; in the experiment with OVCAR-8 ovarian, 53 µM; in the experiment with HCT-15 colon, 18.4 µM; with UACC-257 melanoma, 65.3 µM; in the experiment with M14 melanoma, 44.1 µM; in the experiment on MDA-MB-231 breast, 29.3 µM. Also, the TGI in the experiment on DU-145 prostate turned out to be 14.8 µM; in the experiment on MOLT-4 leukemia, 47.5 µM; in the experiment with SNB-19 CNS it was 31.9 µM; in the experiment on SK-MEL-28 melanoma, 14 µM.

Take `COc1ccc(C2=NOC3=c4ccccc4=CSC3=C2c2ccccc2)cc1`: the GI50 is 49.7 µM in the experiment with OVCAR-4 ovarian; 42.9 µM with OVCAR-8 ovarian; 22.3 µM with HCT-15 colon; 69.6 µM in the experiment with UACC-257 melanoma; 26.3 µM with M14 melanoma; 20.3 µM with MDA-MB-231 breast. In addition, the GI50 with DU-145 prostate was 19.8 µM; in the experiment with MOLT-4 leukemia, greater than 100 µM; in the experiment with SNB-19 CNS, 34.7 µM; in the experiment with SK-MEL-28 melanoma, 37.7 µM. Besides, the TGI in the experiment with OVCAR-4 ovarian was greater than 100 µM; with OVCAR-8 ovarian it was greater than 100 µM; in the experiment on HCT-15 colon, greater than 100 µM; in the experiment on UACC-257 melanoma, greater than 100 µM; in the experiment on M14 melanoma, greater than 100 µM; in the experiment with MDA-MB-231 breast it was 76 µM. Besides, the TGI with DU-145 prostate, in the experiment on MOLT-4 leukemia, with SNB-19 CNS and in the experiment with SK-MEL-28 melanoma was greater than 100 µM each time.

Regarding `CCCCCCCC(=O)OC[n+]1cccc(-c2c(COC(=O)NC(C)C)c(COC(=O)NC(C)C)c3n2CCC3)c1`, the TGI in the experiment with OVCAR-4 ovarian, with OVCAR-8 ovarian, in the experiment on HCT-15 colon, in the experiment on UACC-257 melanoma, in the experiment on M14 melanoma and with MDA-MB-231 breast was greater than 100 µM throughout. Besides, the TGI is greater than 100 µM with DU-145 prostate, 99.4 µM with MOLT-4 leukemia, greater than 100 µM in the experiment on SNB-19 CNS and greater than 100 µM with SK-MEL-28 melanoma.

Values taken from PubChem BioAssay (NCI).
